# Assay results from paper PMC11079024, “Identification of a family of species-selective complex I inhibitors as potential anthelmintics” (Nature Communications, 2024).
# Values joined by “and” are separate entries in the source; they are usually repeats but may differ in a detail not shown here. Equal entries are not always repeated. Where two headings read alike, the source gives them in different places.
# Target: C. elegans (N2) complex I (NADH:ubiquinone oxidoreductase) (Caenorhabditis elegans, UniProt P24887+Q93873+Q94360)
# Sequence (Q94360 17-199): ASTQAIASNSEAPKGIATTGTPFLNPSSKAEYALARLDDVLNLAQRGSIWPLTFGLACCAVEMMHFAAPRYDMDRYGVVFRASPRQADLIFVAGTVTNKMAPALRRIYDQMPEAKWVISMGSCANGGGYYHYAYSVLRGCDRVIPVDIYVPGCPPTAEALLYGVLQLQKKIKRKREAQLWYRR
# Sequence (P24887 whole entry): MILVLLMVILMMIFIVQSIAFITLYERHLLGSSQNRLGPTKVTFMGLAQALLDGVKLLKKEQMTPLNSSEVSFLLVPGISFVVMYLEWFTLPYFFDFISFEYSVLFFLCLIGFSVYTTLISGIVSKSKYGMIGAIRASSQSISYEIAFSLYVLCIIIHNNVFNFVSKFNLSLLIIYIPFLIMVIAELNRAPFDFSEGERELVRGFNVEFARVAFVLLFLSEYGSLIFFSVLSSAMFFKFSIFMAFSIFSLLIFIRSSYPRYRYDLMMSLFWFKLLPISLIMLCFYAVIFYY
# Sequence (Q93873 31-482): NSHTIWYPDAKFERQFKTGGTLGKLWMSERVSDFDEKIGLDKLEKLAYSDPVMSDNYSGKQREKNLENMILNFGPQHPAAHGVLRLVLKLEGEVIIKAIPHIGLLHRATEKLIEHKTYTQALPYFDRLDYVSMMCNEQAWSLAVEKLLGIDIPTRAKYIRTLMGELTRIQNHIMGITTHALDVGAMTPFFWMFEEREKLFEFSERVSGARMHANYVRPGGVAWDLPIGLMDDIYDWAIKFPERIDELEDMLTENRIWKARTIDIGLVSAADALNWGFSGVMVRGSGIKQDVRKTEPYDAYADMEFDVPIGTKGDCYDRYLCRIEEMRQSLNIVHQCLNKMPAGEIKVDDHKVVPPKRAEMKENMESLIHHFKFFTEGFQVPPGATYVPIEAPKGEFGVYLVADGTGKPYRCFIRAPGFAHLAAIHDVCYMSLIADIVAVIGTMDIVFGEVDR
# Assay: biochemical
# Format: biochemical
# How it was run: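 Complex I rate: initial linear slope of A600 over 15 min, expressed as percent of solvent control. Triple freeze-thawed mitochondria (0.2 mg/mL) in KPi pH 7.5, BSA 3 mg/mL, NADH 80 μM, decylubiquinone 60 μM, DCIP 160 μM, antimycin A, KCN.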
# [1] = wild-type C. elegans, individual Rep1-Rep4, read-out: percent in vitro complex I activity relative to solvent control, single replicates
# [2] = wild-type C. elegans, mean of Rep1-4, read-out: percent in vitro complex I activity relative to solvent control, Mean
# [3] = N2 wild-type mitochondria, Fig. 4d data set, mean of replicates, read-out: percent (%) in vitro complex I activity relative to solvent control
# [4] = wild-type C. elegans mitochondria, mean of replicates, read-out: percent (%) in vitro complex I activity relative to solvent control
# [5] = C. elegans mitochondria, Mean of replicates, read-out: in vitro complex I activity relative to solvent control
# [6] = C. elegans mitochondria, single replicate, read-out: in vitro complex I activity relative to solvent control
# [7] = C. elegans mitochondria, Mean, read-out: in vitro complex I activity relative to solvent control
smiles,measurement,setting,value
CC(C)Cc1ccc(C(C)c2nc3ccccc3n2C)cc1 (stereo not drawn) [NPD8790],remaining activity at 0.0001 µM,[1],100%
same,remaining activity at 0.0001 µM,[2],96.6%
same,remaining activity at 0.0005 µM,[1],105%
same,remaining activity at 0.0005 µM,[2],96.5%
same,remaining activity at 0.001 µM,[1],99%
same,remaining activity at 0.001 µM,[2],92.6%
same,remaining activity at 0.0025 µM,[1],107%
same,remaining activity at 0.0025 µM,[2],98.8%
same,remaining activity at 0.005 µM,[1],102%
same,remaining activity at 0.005 µM,[2],95.9%
same,remaining activity at 0.013 µM,[2],106%
same,remaining activity at 0.025 µM,[1],102%
same,remaining activity at 0.025 µM,[2],98.2%
same,remaining activity at 0.063 µM,[2],95.6%
same,remaining activity at 0.125 µM,[3],96.6%
same,remaining activity at 0.125 µM,"N2 wild-type mitochondria, Fig. 4d data set, single replicate, read-out: percent (%) in vitro complex I activity relative to solvent control",94.3%
same,remaining activity at 0.125 µM,[4],102%
same,remaining activity at 0.125 µM,"wild-type C. elegans mitochondria, single replicate, read-out: percent (%) in vitro complex I activity relative to solvent control",95.7%
same,remaining activity at 0.125 µM,[1],95.7%
same,remaining activity at 0.125 µM,[2],92%
same,remaining activity at 0.313 µM,[3],90.9%
same,remaining activity at 0.313 µM,[4],93%
same,remaining activity at 0.313 µM,[1],86.3%
same,remaining activity at 0.313 µM,[2],81.9%
same,remaining activity at 0.625 µM,[3],93.2%
same,remaining activity at 0.625 µM,[4],87%
same,remaining activity at 0.625 µM,[2],83.7%
same,remaining activity at 1.5 µM,[3],78.9%
same,remaining activity at 1.5 µM,[4],72.5%
same,remaining activity at 1.5 µM,[2],70.3%
same,remaining activity at 3 µM,[3],61.6%
same,remaining activity at 3 µM,[4],52.5%
same,remaining activity at 3 µM,[2],49.5%
same,remaining activity at 15 µM,[3],8.9%
same,remaining activity at 15 µM,[4],7.83%
same,remaining activity at 15 µM,[2],8.01%
same,remaining activity at 37.5 µM,[3],5.01%
same,remaining activity at 37.5 µM,[4],3.88%
same,remaining activity at 37.5 µM,[2],3.5%
same,remaining activity at 75 µM,"75 µM, wild-type C. elegans, mean of Rep1-4, read-out: percent in vitro complex I activity relative to solvent control, Mean",13.3%
same,activity at 100 µM,"100 µM compound, relative to solvent control, mean (SEM), read-out: % Activity Complex I",5.34%
same,"Percent in vitro activity, Complex I (single replicate Rep1-Rep4)","100 μM of NPD compound, C. elegans mitochondria, individual biological replicates, 100 µM",0.000% and 4.423% and 13.672% and 3.252%
same,activity at 100 µM,"100 μM of NPD compound, C. elegans mitochondria, mean of four biological replicates, read-out: Percent in vitro activity, Complex I (Mean)",5.34%
same,remaining activity at 0.06 µM,"C. elegans mitochondria, 0.06 µM, Mean of replicates, read-out: in vitro complex I activity relative to solvent control",109%
same,remaining activity at 0.13 µM,[5],102%
same,remaining activity at 0.13 µM,[6],112%
same,remaining activity at 0.313 µM,[5],93%
same,remaining activity at 0.625 µM,[5],87%
same,remaining activity at 1.5 µM,[5],72.5%
same,remaining activity at 3 µM,[5],52.5%
same,remaining activity at 15 µM,[5],7.83%
same,remaining activity at 37.5 µM,[5],3.88%
same,remaining activity at 0.0001 µM,[7],104%
same,remaining activity at 0.0005 µM,[7],106%
same,remaining activity at 0.0005 µM,[6],105%
same,remaining activity at 0.001 µM,[7],104%
same,remaining activity at 0.0025 µM,[7],109%
same,remaining activity at 0.0025 µM,[6],107%
same,remaining activity at 0.005 µM,[7],107%
same,remaining activity at 0.013 µM,[7],115%
same,remaining activity at 0.025 µM,[7],108%
same,remaining activity at 0.025 µM,[6],102%
same,remaining activity at 0.063 µM,[7],109%
same,remaining activity at 0.125 µM,[7],102%
same,remaining activity at 0.125 µM,[6],95.7%
same,remaining activity at 0.313 µM,[7],93%
